These results are taken from patent publication US9950048B2, “Immunogenic epitopes for immunotherapy” (immatics biotechnologies GmbH, priority 2007, dated 2018).

Ends that are not written are not given here.

One series deals with monocyte-depleted PBMCs of one healthy donor. Briefly: In vitro priming with peptide-pulsed autologous DCs, intracellular IFNγ staining (ICS) read-out. Type of series: cell-based, human.
Conditions: not given
On the procedure:
FIGS. 7a and 7b depict the in vitro immunogenicity of TGFBI-004 as detected by ICS after five stimulation cycles.
Cells were primed with TGFBI-004-loaded autologous DCs and restimulated repeatedly with autologous PBMCs plus TGFBI-004. For the read-out cells were incubated with relevant TGFBI-004 (Well 1, 2, 3 and 4) and irrelevant (Neg. Control) peptide, respectively. Additionally to the intracellular IFNγ staining, cells were also stained with CD4-FITC and OCD8-PerCP antibodies. The analysis was performed on a four-color FACSCalibur cytometer (BD Biosciences, Germany).
(§1) Priming and expansion of specific human CD4+ and CD8+ cells were assayed in vitro by priming of monocyte-depleted PBMCs with autologous DCs and restimulation with autologous PBMCs. […] As a read-out system, IFNγ production upon short term restimulation was assessed by ELISPOT and flow cytometry. T cells were analysed after […] stimulations by ELISPOT and intracellular IFNγ staining plus CD4-FITC and CD8-PerCP to determine the percentage of IFNγ-producing cells in specific T-cell subpopulations. In this experiment, cells stimulated with TGFBI-004 peptide from different wells were pooled, incubated with irrelevant peptide for the read-out and performed as negative controls. […]
(§2) To generate CD4+ T cells, 3 Million PBMCs/PBLs were stimulated with 2×10^5 autologuous DCs. […] After being washed with DC medium, cell number was determined. […]
Turning to “TPPIDAHTRNLLRNH (listed as Homo sapiens) [TGFBI-004]”, the “T-cell lines with specific IFNγ producing CD4+ and/or CD8+ cells via ICS” value is listed as 3 out of 4.

The next series shares this test system. Briefly: In vitro priming with peptide-pulsed autologous DCs, IFNγ ELISPOT read-out. To be noted: one donor tested, autologous system. Type of series: cell-based, human. On the procedure: FIG. 6 depicts the in vitro immunogenicity of TGFBI-004 as detected by IFNγ ELISPOT after five stimulation cycles.
Cells were primed and restimulated repeatedly with TGFBI-004 and then incubated with relevant TGFBI-004 (Well 1, 2, 3 and 4) and irrelevant (Neg. control) peptide, respectively. The analysis after IFNγ ELISPOT was performed on an ELISPOT Reader (CTL, Cleveland, USA). PHA-Ionomycin served as positive control. Numbers indicate the count of positive spots.
as §1, §2
“TPPIDAHTRNLLRNH (listed as Homo sapiens) [TGFBI-004]”: the “induction of CD4+ and CD8+ T cell responses” value is “able to elicit CD4+ and CD8+ T cell responses”.

Staying with this series, now noted: one healthy donor, IFNγ ELISPOT.
Turning to “TPPIDAHTRNLLRNH (listed as Homo sapiens) [TGFBI-004]”, the “T-cell lines with T-cell responses detected via ELISPOT” value is 2 out of 4.

Tested on in the next series: not listed separately
Put plainly: Particle size/shape measurement and analytical HPLC of reconstituted IMA910 suspension. It is filed as physicochemical. To be noted: analytical HPLC of suspension. The procedure:
Particle size distribution and particle shape measurement of the particles obtained after reconstitution have been performed by capturing direct images of each individual particle in the range of 0.25 to 100 μm followed by image analysis.
Furthermore, analytical HPLC was performed for a closer characterization of the obtained suspension.
IMA910 is dissolved in 700 μL sodium hydrogen carbonate (4.2%).
As for “CCN-001: 9 amino acid peptide in vaccine IMA910, supplied as chloride salt (LLGATCMFV; also: chloride salt) [reference compound]”, the “amount of peptide found in the particles” value is “low amounts”.
Consider KIFDEILVNA [TOP-001], for which the “amount of peptide found in the particles” value is “low amounts”.

The test system of the next series is CD8+ T cells of healthy HLA-A*02+ donors. Put plainly: In vitro priming of CD8+ T cells with pMHC/anti-CD28 coated beads (high density), tetramer analysis. Conditions: at least one well with ≥1% specific tetramer+ among CD8+ T-cells and ≥10× median of negative controls. It is filed as cell-based, human. On the procedure: To perform in vitro stimulations by artificial antigen presenting cells (aAPC) loaded with peptide-MHC complex (pMHC) and anti-CD28 antibody, first PBMCs (peripheral blood mononuclear cells) were isolated from fresh HLA-A*02+ buffy coats by using standard density gradient separation medium (PAA, Cölbe, Germany). Buffy coats were either obtained from the Blood Bank Tübingen or from the Katharinenhospital Stuttgart. Isolated PBMCs were incubated overnight in T-cell medium (TCM) for human in vitro priming consisting of RPMI-Glutamax (Invitrogen, Karlsruhe, Germany) supplemented with 10% heat inactivated human AB serum (PAA, Cölbe, Germany), 100 U/ml Penicillin/100 μg/ml Streptomycin (Cambrex, Verviers, Belgium), 1 mM sodium pyruvate (CC Pro, Neustadt, Germany) and 20 μg/ml Gentamycin (Cambrex). CD8+ lymphocytes were isolated using the CD8+ MACS positive selection kit (Miltenyi, Bergisch Gladbach, Germany) according to the manufacturer's instructions. Obtained CD8+ T-cells were incubated until use in TCM supplemented with 2.5 ng/ml IL-7 (PromoCell, Heidelberg, Germany) and 10 U/ml IL-2 (Chiron, Munich, Gemany). Generation of pMHC/anti-CD28 coated beads, T-cell stimulations and readout was performed as described before (Walter, S, et al., 2003, J. Immunol., 171, 4974-4978) with minor modifications. Briefly, biotinylated recombinant HLA-A*0201 molecules lacking the transmembrane domain and being biotinylated at the carboxy terminus of the heavy chain were produced following a method described by (Altman, J D, et al., 1996, Science, 274, 94-96). The purified costimulatory mouse IgG2a anti human CD28 Ab 9.3 (Jung, G, Ledbetter, J A, and Muller-Eberhard, H J; 1987, Induction of cytotoxicity in resting human T lymphocytes bound to tumor cells by antibody heteroconjugates, Proc Natl Acad Sci USA, 84, 4611-4615) was chemically biotinylated using Sulfo-N-hydroxysuccinimidobiotin as recommended by the manufacturer (Perbio, Bonn, Germany).
800,000 beads/200 μl were coated in 96-well plates in the presence of 600 ng biotin anti-CD28 plus 200 ng relevant biotin-pMHC (high density beads) or 2 ng relevant plus 200 ng irrelevant (pMHC library) MHC (low density beads). Stimulations were initiated in 96-well plates by conincubating 1×10^6 CD8+ T cells with 2×10^5 washed coated beads in 200 μl TCM supplemented with 5 ng/ml IL-12 (PromoCell) for 3-4 days at 37° C. Half of the medium was then exchanged by fresh TCM supplemented with 80 U/ml IL-2 and incubation was continued for 3-4 days at 37° C. This stimulation cycle was performed for a total of three times. Finally, tetrameric analyses were performed with fluorescent MHC tetramers (produced as described by (Altman, J D, et al., 1996, Science, 274, 94-96)) plus antibody CD8-FITC clone SK1 (BD, Heidelberg, Germany) on a four-color FACSCalibur (BD). Peptide specific cells were calculated as percentage of total CD8+ T cells. Evaluation of tetrameric analysis was performed using the software FCS Express (De Novo Software). In vitro priming of specific tetramer+CD8+ lymphocytes was detected by appropriate gating and by comparison to negative control stimulations.
Peptides of the present invention were tested together with peptides of known in vivo immunogenicity for comparison. The CEA-005 peptide that was optimised for in vitro T-cell induction (Fong, L, et al., 2001, J. Immunol., 166, 4254-4259) served as control.
Results of in vitro immunogenicity experiments conducted by immatics are summarised here. Results shown have been obtained by stimulation of CD8+ cells with high density beads. As different human serum lots may highly affect the immunogenicity results, only assays in which one and the same serum lot was used, were evaluated together.
Take “KLTDIQIEL (listed as Homo sapiens) [JAK-001]”: the Immunogenicity detected entry is reported as “yes”.
Consider “CCN-001: 9 amino acid peptide in vaccine IMA910, supplied as chloride salt (LLGATCMFV; also: chloride salt) [reference compound]”, for which the Immunogenicity detected result is recorded as “yes”.
Consider “SLWAGVVVL (listed as Homo sapiens) [CHI-001]”, for which the Immunogenicity detected result is listed as “yes”.
For ALSNLEVTL [Peptide C20-001], the Immunogenicity detected entry is “yes”.
Take KIFDEILVNA [TOP-001]: the Immunogenicity detected result is on record as “yes”.
The same measure, in the same setting: next, KLMDLDVEQL [PCN-001]: “yes”; “ALTTLMHQL (listed as Homo sapiens) [PTP-001]”: “yes”.

Still in this series, the particulars now being: high density beads.
For the substance “CCN-001: 9 amino acid peptide in vaccine IMA910, supplied as chloride salt (LLGATCMFV; also: chloride salt) [reference compound]”, the Positive donors/donors tested was 5/5, the “Positive donors/donors tested (%)” value is on record as “(100%)”, the Positive wells/wells tested is 42/54 and the “Positive wells/wells tested (%)” value is given as “(78%)”.
For ALSNLEVTL [Peptide C20-001], the Positive donors/donors tested was 1/5, the “Positive donors/donors tested (%)” value was “(20%)”, the Positive wells/wells tested is given as 1/60 and the “Positive wells/wells tested (%)” value is on record as “(2%)”.
As for KIFDEILVNA [TOP-001], the Positive donors/donors tested is 2/5, the “Positive donors/donors tested (%)” value is recorded as “(40%)”, the Positive wells/wells tested was 7/72 and the “Positive wells/wells tested (%)” value was “(10%)”.
With KLMDLDVEQL [PCN-001], the Positive donors/donors tested was 3/4, the “Positive donors/donors tested (%)” value is reported as “(75%)”, the Positive wells/wells tested was 4/42 and the “Positive wells/wells tested (%)” value is recorded as “(10%)”.
